How the values were obtained:
[1] = Metabolic stability in human liver S9 fraction assessed as half life at 1 uM in presence of NADPH measured upto 60 min by LC-MS/MS analysis; assay type: ADME, subcellular
Steryl-sulfatase [2] = target: T1, Steryl-sulfatase (Homo sapiens, UniProt P08842); test: Irreversible inhibition of STS in human T47D cells using [3H]E1S as substrate measured after 24 hrs by HPLC analysis; assay type: cell-based
T1 sequence (P08842 whole entry): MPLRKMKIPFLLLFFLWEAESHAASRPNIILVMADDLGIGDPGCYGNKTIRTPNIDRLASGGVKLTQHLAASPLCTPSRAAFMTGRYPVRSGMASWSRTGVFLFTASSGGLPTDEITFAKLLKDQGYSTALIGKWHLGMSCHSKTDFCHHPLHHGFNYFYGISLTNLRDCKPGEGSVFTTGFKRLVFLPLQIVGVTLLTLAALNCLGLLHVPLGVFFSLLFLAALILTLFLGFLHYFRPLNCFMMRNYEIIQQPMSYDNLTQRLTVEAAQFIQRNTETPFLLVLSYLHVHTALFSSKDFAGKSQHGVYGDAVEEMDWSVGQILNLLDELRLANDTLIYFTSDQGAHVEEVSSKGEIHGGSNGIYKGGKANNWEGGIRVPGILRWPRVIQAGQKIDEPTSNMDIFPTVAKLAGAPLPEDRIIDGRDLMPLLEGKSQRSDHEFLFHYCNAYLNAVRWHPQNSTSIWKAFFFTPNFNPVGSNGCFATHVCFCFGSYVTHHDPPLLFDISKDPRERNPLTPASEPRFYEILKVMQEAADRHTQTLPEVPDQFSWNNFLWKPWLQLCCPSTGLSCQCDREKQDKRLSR

[3] = Metabolic stability in mouse liver S9 fraction assessed as intrinsic clearance at 1 uM in presence of NADPH measured upto 60 min by LC-MS/MS analysis; assay type: ADME, subcellular; conditions: s9, 1 h
[4] = Metabolic stability in mouse liver S9 fraction assessed as half life at 1 uM in presence of NADPH measured upto 60 min by LC-MS/MS analysis; assay type: ADME, subcellular
[5] = Metabolic stability in human liver S9 fraction assessed as intrinsic clearance at 1 uM in presence of NADPH measured upto 60 min by LC-MS/MS analysis; assay type: ADME, subcellular; conditions: s9, 1 h
Steryl-sulfatase [6] = target: T1, Steryl-sulfatase; test: Inhibition of STS in human T47D cells using [3H]E1S as substrate measured after 24 hrs by HPLC analysis; assay type: cell-based
[7] = target: T2, 17-beta-hydroxysteroid dehydrogenase type 1 (Homo sapiens, UniProt P14061); test: Inhibition of 17beta-HSD1 in human T47D cells using [3H]E1S as substrate measured after 24 hrs by HPLC analysis; assay type: cell-based
T2 sequence (P14061 whole entry): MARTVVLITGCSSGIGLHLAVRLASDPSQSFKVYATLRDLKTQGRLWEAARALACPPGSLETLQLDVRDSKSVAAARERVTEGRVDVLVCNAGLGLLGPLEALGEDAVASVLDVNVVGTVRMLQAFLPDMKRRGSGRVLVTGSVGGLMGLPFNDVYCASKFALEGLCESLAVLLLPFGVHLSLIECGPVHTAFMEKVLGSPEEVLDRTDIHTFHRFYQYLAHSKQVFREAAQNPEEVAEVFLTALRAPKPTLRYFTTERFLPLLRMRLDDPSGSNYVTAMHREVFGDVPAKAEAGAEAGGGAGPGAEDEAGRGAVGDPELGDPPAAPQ

Homo sapiens = species on record: Homo sapiens; test: Selectivity ratio of IC50 for human placental microsomal fraction 17beta-HSD2 to IC50 for human placental cytosolic fraction 17beta-HSD1
[8] = target: T2, 17-beta-hydroxysteroid dehydrogenase type 1; test: Inhibition of human placental cytosolic fraction 17beta-HSD1 using [3H]-E1 as substrate in presence of NADH measured after 10 mins by HPLC method; assay type: subcellular, Placenta, Cytosol
[9] = target: T3, 17-beta-hydroxysteroid dehydrogenase type 2 (Homo sapiens, UniProt P37059); test: Inhibition of human placental microsomal fraction 17beta-HS2 using [3H]-E2 as substrate in presence of NAD+ measured after 10 mins by HPLC method; assay type: subcellular, Placenta, Microsome
T3 sequence (P37059 whole entry): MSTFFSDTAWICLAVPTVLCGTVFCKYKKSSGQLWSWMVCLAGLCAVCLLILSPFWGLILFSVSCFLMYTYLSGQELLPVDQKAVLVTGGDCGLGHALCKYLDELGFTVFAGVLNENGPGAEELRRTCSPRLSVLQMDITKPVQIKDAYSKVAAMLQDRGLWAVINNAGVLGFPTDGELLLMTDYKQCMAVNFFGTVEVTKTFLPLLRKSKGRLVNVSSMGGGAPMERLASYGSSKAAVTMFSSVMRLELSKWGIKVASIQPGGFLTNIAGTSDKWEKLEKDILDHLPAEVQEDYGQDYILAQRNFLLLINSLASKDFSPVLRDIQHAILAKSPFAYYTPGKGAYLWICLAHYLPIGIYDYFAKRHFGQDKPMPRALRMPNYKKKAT

[10] = Stability in human T47D cells cultured in DMEM medium measured after 24 hrs by LC-MS/MS analysis; assay type: ADME, cell-based; conditions: read-out: Stability
[11] = Cytotoxicity against human HEK293 cells assessed as cell growth inhibition at 20 uM measured at 48 hrs bt MTT assay relative to control; assay type: toxicity, cell-based
[12] = target: T4, 17-beta-hydroxysteroid dehydrogenase type 1 (Homo sapiens) (UniProt P14061); conditions: dose 50.0 nM, time 6.5 hrs
T4 sequence (whole entry): T2 sequence (P14061 whole entry)
Description: Inhibition of human placental cytosolic fraction 17beta-HSD1 at 50 nM using [3H]-E1 as substrate in presence of NADH measured after 6.5 hrs by LC-MS/MS method

[13] = Stability of compound in phosphate buffer measured after 24 hrs by LC-MS/MS analysis; assay type: physicochemical; conditions: read-out: Stability
[14] = target: T4, 17-beta-hydroxysteroid dehydrogenase type 1 (Homo sapiens); conditions: dose 50.0 nM, time 24.0 hrs
[15] = target: T4, 17-beta-hydroxysteroid dehydrogenase type 1 (Homo sapiens); test: Inhibition of human 17beta-HSD1 at 50 nM using [3H]-E1 as substrate measured after 13.5 hrs in presence of NADH by LC-MS/MS analysis

SMILES | IC50 (Steryl-sulfatase [6]) [nM] | IC50 [7] [nM] | Ratio IC50 (Homo sapiens) | IC50 [8] [nM] | IC50 [9] [nM] | also measured
Cc1ccccc1N(C)C(=O)c1ccc(-c2ccc(OS(N)(=O)=O)cc2F)o1 | 12 | – | – | – | – | half-life at 1 µM [1]: 51 min; IC50 (Steryl-sulfatase [2]): 16 nM; intrinsic clearance [3]: 38 µL/min/mg; half-life at 1 µM [4]: 23 min; intrinsic clearance [5]: 14 µL/min/mg
NS(=O)(=O)Oc1ccc2c3c(c(=O)oc2c1)CCCCC3 [IROSUSTAT] | – | – | – | – | – | half-life at 1 µM [4]: 3 min
Cc1ccccc1N(C)C(=O)c1ccc(-c2ccc(O)cc2Cl)o1 | – | 14 | 13 | – | – | –
Cc1ccccc1N(C)C(=O)c1coc(-c2ccc(O)cc2)n1 | – | 110 | > 40 | 250 | > 10000 | –
Cc1ccncc1N(C)C(=O)c1ccc(-c2ccc(O)cc2)o1 | – | 64 | > 77 | 260 | > 20000 | –
Cc1ccccc1N(C)C(=O)c1coc(-c2ccc(OS(N)(=O)=O)cc2)n1 | 60 | – | – | – | – | half-life at 1 µM [1]: 180 min; IC50 (Steryl-sulfatase [2]): 68 nM; intrinsic clearance [3]: 15 µL/min/mg; half-life at 1 µM [4]: 47 min; intrinsic clearance [5]: 3.9 µL/min/mg
Cc1ccccc1N(C)C(=O)c1ccc(-c2cccc(OS(N)(=O)=O)c2)o1 | 690 | – | – | – | – | –
Cc1ccc(F)cc1N(C)C(=O)c1ccc(-c2ccc(OS(N)(=O)=O)cc2)o1 | 40 | – | – | – | – | half-life at 1 µM [1]: 34 min; intrinsic clearance [3]: 180 µL/min/mg; half-life at 1 µM [4]: 3.9 min; intrinsic clearance [5]: 21 µL/min/mg
Cc1ccc(F)cc1N(C)C(=O)c1ccc(-c2ccc(O)cc2)o1 | – | 12 | 54 | 41 | 2200 | –
Cc1ccccc1N(C)C(=O)c1cnc(-c2ccc(O)cc2)s1 | – | 340 | 7.5 | 600 | 4500 | –
Cc1ccccc1N(C)C(=O)c1ccc(-c2ccc(OS(N)(=O)=O)cc2)o1 | 28 | – | – | – | – | half-life at 1 µM [1]: 47 min; IC50 (Steryl-sulfatase [2]): 31 nM; remaining at 24 h [10]: 94%; intrinsic clearance [3]: 31 µL/min/mg; inhibition at 48 h, 20 µM [11]: 11.7%; half-life at 1 µM [4]: 25 min; inhibition [12]: 50%; remaining at 24 h [13]: 40%; intrinsic clearance [5]: 15 µL/min/mg
Cc1cccc(F)c1N(C)C(=O)c1ccc(-c2ccc(OS(N)(=O)=O)cc2)o1 | 150 | – | – | – | – | –
Cc1ccccc1N(C)C(=O)c1cnc(-c2ccc(OS(N)(=O)=O)cc2)s1 | 130 | – | – | – | – | –
Cc1c(F)cccc1N(C)C(=O)c1ccc(-c2ccc(O)cc2)o1 | – | 50 | 23 | 170 | 3900 | –
Cc1cc(-c2ccc(C(=O)N(C)c3ccccc3C)o2)ccc1OS(N)(=O)=O | 570 | – | – | – | – | –
Cc1ccccc1N(C)C(=O)c1ccc(-c2ccccc2O)o1 | – | 1900 | > 5.2 | 1900 | > 10000 | –
Cc1ccccc1N(C)C(=O)c1csc(-c2ccc(O)cc2)n1 | – | 12 | 115 | 34 | 3900 | –
Cc1ccccc1N(C)C(=O)c1ccc(-c2ccc(O)c(F)c2)o1 | – | 10 | 85 | 11 | – | –
Cc1ccccc1N(C)C(=O)c1nnc(-c2ccc(OS(N)(=O)=O)cc2)o1 | 1100 | – | – | – | – | –
Cc1ccccc1N(C)C(=O)c1ccc(-c2ccc(O)cc2F)o1 | – | 10 | 42 | – | – | –

SMILES | IC50 (Steryl-sulfatase [6]) [nM] | IC50 [7] [nM] | Ratio IC50 (Homo sapiens) | IC50 [8] [nM] | IC50 [9] [nM] | also measured
Cc1cc(F)ccc1N(C)C(=O)c1ccc(-c2ccc(O)cc2)o1 | – | 7.6 | 74 | 23 | 1700 | –
Cc1ncccc1N(C)C(=O)c1ccc(-c2ccc(OS(N)(=O)=O)cc2)o1 | 270 | – | – | – | – | –
Cc1ccccc1N(C)C(=O)c1nnc(-c2ccc(O)cc2)o1 | – | 320 | 13 | 490 | 6200 | –
Cc1ccncc1N(C)C(=O)c1ccc(-c2ccc(OS(N)(=O)=O)cc2)o1 | 820 | – | – | – | – | –
O=c1ccc2ccc(O)cc2o1 [UMBELLIFERONE] | – | – | – | – | – | intrinsic clearance [3]: 280 µL/min/mg; intrinsic clearance [5]: 140 µL/min/mg
Cc1ccccc1N(C)C(=O)c1ccc(-c2ccc(OS(N)(=O)=O)c(Cl)c2)o1 | 25 | – | – | – | – | half-life at 1 µM [1]: 48 min; IC50 (Steryl-sulfatase [2]): 27 nM; intrinsic clearance [3]: 24 µL/min/mg; inhibition at 48 h, 20 µM [11]: 55%; half-life at 1 µM [4]: 31 min; intrinsic clearance [5]: 15 µL/min/mg
Cc1ccccc1N(C)C(=O)c1ccc(-c2ccc(OS(N)(=O)=O)c(F)c2)o1 | 17 | – | – | – | – | half-life at 1 µM [1]: 43 min; IC50 (Steryl-sulfatase [2]): 17 nM; intrinsic clearance [3]: 140 µL/min/mg; half-life at 1 µM [4]: 6.1 min; intrinsic clearance [5]: 16 µL/min/mg
Cc1cc(-c2ccc(C(=O)N(C)c3ccccc3C)o2)ccc1O | – | 8.6 | 150 | – | – | –
Cc1ccccc1N(C)C(=O)c1ccc(-c2ccc(OS(N)(=O)=O)cc2Cl)o1 | 27 | – | – | – | – | half-life at 1 µM [1]: 39 min; IC50 (Steryl-sulfatase [2]): 29 nM; intrinsic clearance [3]: 39 µL/min/mg; inhibition at 48 h, 20 µM [11]: 11.7%; half-life at 1 µM [4]: 20 min; intrinsic clearance [5]: 18 µL/min/mg
Cc1c(F)cccc1N(C)C(=O)c1ccc(-c2ccc(OS(N)(=O)=O)cc2)o1 | 27 | – | – | – | – | half-life at 1 µM [1]: 21 min; IC50 (Steryl-sulfatase [2]): 25 nM; intrinsic clearance [3]: 150 µL/min/mg; half-life at 1 µM [4]: 4.8 min; intrinsic clearance [5]: 29 µL/min/mg
Cc1ccccc1N(C)C(=O)c1csc(-c2ccc(OS(N)(=O)=O)cc2)n1 | 63 | – | – | – | – | half-life at 1 µM [1]: 50 min; IC50 (Steryl-sulfatase [2]): 60 nM; intrinsic clearance [3]: 46 µL/min/mg; half-life at 1 µM [4]: 15 min; intrinsic clearance [5]: 14 µL/min/mg
Cc1cc(F)ccc1N(C)C(=O)c1ccc(-c2ccc(OS(N)(=O)=O)cc2)o1 | 14 | – | – | – | – | half-life at 1 µM [1]: 44 min; IC50 (Steryl-sulfatase [2]): 15 nM; intrinsic clearance [3]: 150 µL/min/mg; half-life at 1 µM [4]: 4.6 min; intrinsic clearance [5]: 16 µL/min/mg
Cc1cccnc1N(C)C(=O)c1ccc(-c2ccc(OS(N)(=O)=O)cc2)o1 | 1100 | – | – | – | – | –
Cc1ccccc1N(C)C(=O)c1ccc(-c2cccc(O)c2)o1 | – | 29 | 19 | 150 | 2800 | –
Cc1ccccc1N(C)C(=O)c1ccc(-c2ccc(O)cc2)o1 | – | 21 | 51 | – | – | inhibition [14]: < 60%; inhibition [15]: 50%
Cc1cccc(F)c1N(C)C(=O)c1ccc(-c2ccc(O)cc2)o1 | – | 120 | 10 | 310 | 3200 | –
Cc1ncccc1N(C)C(=O)c1ccc(-c2ccc(O)cc2)o1 | – | 43 | > 190 | 160 | > 30000 | –
Cc1ccccc1N(C)C(=O)c1ccc(-c2ccc(O)c(Cl)c2)o1 | – | 52 | 74 | – | – | inhibition at 48 h, 20 µM [11]: 55%
Cc1cccnc1N(C)C(=O)c1ccc(-c2ccc(O)cc2)o1 | – | 1100 | > 3 | 3300 | > 10000 | –

Reference: ChEMBL document CHEMBL5126623, “Dual Targeting of Steroid Sulfatase and 17β-Hydroxysteroid Dehydrogenase Type 1 by a Novel Drug-Prodrug Approach: A Potential Therapeutic Option for the Treatment of Endometriosis” (J Med Chem, 2022)
